Test results published in patent US20060099643A1, “Method for determining the regulation of xenobiotic removal” (priority 2002, published 2006).

Assays:
SXR [1] = biological target: T1, SXR (Homo sapiens, UniProt O75469); test: Microplate thermal shift assay (Thermofluor) of SXR with ligands, co-activator peptide SRC1-NR2 and co-repressor peptide NCoR-1; conditions: for ΔΔTm SRC1-NR2: co-activator peptide SRC1-NR2 100 μM; for ΔTm ligand: average of four experiments; for ΔTm at 100 µM: read-out: ΔΔTm NcoR1-NR2; for Probability Agonist (statistical probability of agonist state): computed from affinities derived from ΔΔTm with co-regulator peptides (FIG. 3)
T1 sequence (O75469 1-434): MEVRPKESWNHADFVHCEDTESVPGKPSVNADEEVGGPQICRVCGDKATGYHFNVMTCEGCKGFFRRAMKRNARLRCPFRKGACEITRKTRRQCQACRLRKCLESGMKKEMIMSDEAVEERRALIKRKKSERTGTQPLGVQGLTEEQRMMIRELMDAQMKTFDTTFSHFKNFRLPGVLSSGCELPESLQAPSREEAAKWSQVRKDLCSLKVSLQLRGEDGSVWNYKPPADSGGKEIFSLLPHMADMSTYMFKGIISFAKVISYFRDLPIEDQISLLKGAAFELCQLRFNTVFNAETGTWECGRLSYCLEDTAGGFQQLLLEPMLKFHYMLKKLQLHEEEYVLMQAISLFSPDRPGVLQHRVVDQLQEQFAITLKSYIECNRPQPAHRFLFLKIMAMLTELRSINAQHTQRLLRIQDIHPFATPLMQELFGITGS
Experimental: A 2 μL ligand solution at 2 times the final concentration was dispensed with a micropipette into a 384 well black wall Greiner plate. Then, 2 μL of the protein dye solution was dispensed on top of the ligand solution in the 384 well plate. The plates were spun to ensure mixing of the protein-dye and ligand solutions followed by layering of 1 μL of silicone oil to prevent evaporation during heating of the samples. […] The values for the co-regulators represent a change in Tm stabilization from the receptor-ligand ΔTm values.

SXR [2] = biological target: T1, SXR; conditions: from Ekins & Erickson, Drug Metabolism and Disposition, 30, 96-99 and references therein; cited from earlier work
[3] = SXR 6 μM, ligand 50 μM, change from the receptor-ligand ΔTm

Structure (SMILES) | Kd (SXR [1]) | ΔΔTm SRC1-NR2 (SXR [1]; [3]) | ΔTm ligand (SXR [1]; SXR 6 μM, ligand 50 μM) | ΔTm at 100 µM (SXR [1]) | EC50 (SXR [2]) | Probability Agonist (statistical probability of agonist state) (SXR [1]) | ΔΔTm NcoR1-NR2 (SXR [1]; SXR 6 μM, ligand 50 μM, co-repressor peptide NCoR-1 100 μM, change from the receptor-ligand ΔTm)
CC(=O)O[C@H]1C(=O)[C@@]2(C)[C@H]([C@H](OC(=O)c3ccccc3)[C@]3(O)C[C@H](OC(=O)[C@H](O)[C@@H](NC(=O)c4ccccc4)c4ccccc4)C(C)=C1C3(C)C)[C@]1(OC(C)=O)CO[C@@H]1C[C@@H]2O [Taxol] | 23 µM | 2.5 | 1.3 °C | 4.7 °C | 5 µM | – | –
C[C@H](CCC(=O)O)[C@H]1CC[C@H]2[C@@H]3CC[C@@H]4C[C@H](O)CC[C@]4(C)[C@H]3CC[C@]12C [Lithocholic acid] | – | 2.9 | 2.4 °C | 1.4 °C | – | – | –
CC(=O)[C@@]1(O)CC[C@H]2[C@@H]3CCC4=CC(=O)CC[C@]4(C)[C@H]3CC[C@@]21C [17-α-hydroxyprogesterone] | – | – | – | – | – | 0.47 | –
C[C@]12CCC(=O)C=C1CC[C@@H]1[C@@H]2[C@@H](O)C[C@@]2(C)[C@H]1CC[C@]2(O)C(=O)CO [Hydrocortisone] | 17 µM | 3.3 | 1.6 °C | 3.7 °C | – | 0.44 | –
C[C@]12CC[C@@H](O)C[C@@H]1CC[C@@H]1[C@@H]2CC[C@]2(C)C(=O)CC[C@@H]12 [Androsterone] | – | 3.5 | 3.3 °C | 3.8 °C | – | 0.45 | –
CC(=O)[C@H]1CC[C@H]2[C@@H]3CCC4=CC(=O)CC[C@]4(C)[C@H]3[C@H](O)C[C@]12C [11-α-hydroxy-progesterone] | – | 4.6 | 6.3 °C | – | – | 0.96 | 1.0
